In patent publication US6346542B1, “Pesticidal composition comprising enantiomeric form of fipronil” (priority 1999, dated 2002):

Experiments:
dogs [1] = details: 10 mg/kg in dogs
dogs [2] = experiment: Emesis after oral administration; format: in vivo, dog; details: for emetic activity on oral administration: oral administration to animals, dose not stated; for dogs showing emesis: 20 mg/kg oral capsule, within 5 hours after administration
Description: Another unexpected substantial advantage is that the (S) enantiomer provides a substantial reduction in emesis when administered to an animal orally. By the term “emesis” is meant vomiting. Generally, an emetic substance elicits emesis in less than 24 hours after administration, usually less than 8 hours, more usually less than 2 hours.

[3] = system: cat fleas (Ctenocephalides felis); experiment: Oral efficacy against cat fleas on infested dogs; format: in vivo
[4] = system: brown dog ticks (Rhipicephalus sanguineus); experiment: Oral efficacy against brown dog ticks on infested dogs; details: for ticks remaining: 23 days after administration

CC(=O)Nc1c([S@@+]([O-])C(F)(F)F)c(C#N)nn1-c1c(Cl)cc(C(F)(F)F)cc1Cl (single isomer, unassigned) [5-acetylamino (R) enantiomer]
mortality (dogs [1]): 33%

N#Cc1nn(-c2c(Cl)cc(C(F)(F)F)cc2Cl)c(N)c1[S+]([O-])C(F)(F)F (racemic) [fipronil, 5-amino-3-cyano-1-(2,6-dichloro-4-trifluoromethylphenyl)-4-trifluoromethylsulfinylpyrazole]
emetic activity on oral administration (dogs [2]): causes emesis

N#Cc1nn(-c2c(Cl)cc(C(F)(F)F)cc2Cl)c(N)c1[S@@+]([O-])C(F)(F)F [Compound C, (R)-5-amino-3-cyano-1-(2,6-dichloro-4-trifluoromethylphenyl)-4-trifluoromethylsulfinylpyrazole]
animals showing emesis symptoms (dogs [2]; 3 mg/kg oral, dogs, after 2 hours): 20%
animals showing emesis symptoms (dogs [2]; 10 mg/kg oral, dogs, after 1 hour): 40%
animals showing emesis symptoms (dogs [2]; 10 mg/kg oral, dogs, after 3 hours): 20%
dogs showing emesis (dogs [2]): 90%
per cent (%) mortality of the arthropods, Flea ([3]; 1 mg/kg oral, 1 DAT): 100%
per cent (%) mortality of the arthropods, Flea ([3]; 1 mg/kg oral, 9 DAT): 100%
per cent (%) mortality of the arthropods, Flea ([3]; 1 mg/kg oral, 16 DAT): 76%
per cent (%) mortality of the arthropods, Flea ([3]; 1 mg/kg oral, 23 DAT): 72%
per cent (%) mortality of the arthropods, Flea ([3]; 3 mg/kg oral, 1 DAT): 100%
per cent (%) mortality of the arthropods, Flea ([3]; 3 mg/kg oral, 9 DAT): 78%
per cent (%) mortality of the arthropods, Flea ([3]; 3 mg/kg oral, 16 DAT): 72%
per cent (%) mortality of the arthropods, Flea ([3]; 3 mg/kg oral, 23 DAT): 64%
per cent (%) mortality of the arthropods, Flea ([3]; 10 mg/kg oral, 1 DAT): 100%
per cent (%) mortality of the arthropods, Flea ([3]; 10 mg/kg oral, 9 DAT): 95%
per cent (%) mortality of the arthropods, Flea ([3]; 10 mg/kg oral, 16 DAT): 72%
per cent (%) mortality of the arthropods, Flea ([3]; 10 mg/kg oral, 23 DAT): 86%
per cent (%) mortality of the arthropods, Flea ([3]; 20 mg/kg oral capsule, 1 DAT): 100%
per cent (%) mortality of the arthropods, Flea ([3]; 20 mg/kg oral capsule, 9 DAT): 86%
per cent (%) mortality of the arthropods, Flea ([3]; 20 mg/kg oral capsule, 16 DAT): 69%
per cent (%) mortality of the arthropods, Flea ([3]; 20 mg/kg oral capsule, 23 DAT): 67%
per cent (%) mortality of the arthropods, Flea ([3]; 20 mg/kg oral capsule, 31 DAT): 69%
per cent (%) mortality of the arthropods, Tick ([4]; 1 mg/kg oral, 1 DAT): 100%
per cent (%) mortality of the arthropods, Tick ([4]; 1 mg/kg oral, 9 DAT): 100%
per cent (%) mortality of the arthropods, Tick ([4]; 1 mg/kg oral, 16 DAT): 66%
per cent (%) mortality of the arthropods, Tick ([4]; 1 mg/kg oral, 23 DAT): 78%
per cent (%) mortality of the arthropods, Tick ([4]; 3 mg/kg oral, 1 DAT): 93%
per cent (%) mortality of the arthropods, Tick ([4]; 3 mg/kg oral, 9 DAT): 89%
per cent (%) mortality of the arthropods, Tick ([4]; 3 mg/kg oral, 16 DAT): 71%
per cent (%) mortality of the arthropods, Tick ([4]; 3 mg/kg oral, 23 DAT): 65%
per cent (%) mortality of the arthropods, Tick ([4]; 10 mg/kg oral, 1 DAT): 97%
per cent (%) mortality of the arthropods, Tick ([4]; 10 mg/kg oral, 9 DAT): 97%
per cent (%) mortality of the arthropods, Tick ([4]; 10 mg/kg oral, 16 DAT): 71%
per cent (%) mortality of the arthropods, Tick (effectiveness) ([4]; 10 mg/kg oral, 23 DAT): 71%
ticks remaining ([4]; 10 mg/kg oral): 29%
per cent (%) mortality of the arthropods, Tick ([4]; 20 mg/kg oral capsule, 1 DAT): 97%
per cent (%) mortality of the arthropods, Tick ([4]; 20 mg/kg oral capsule, 9 DAT): 96%
per cent (%) mortality of the arthropods, Tick ([4]; 20 mg/kg oral capsule, 16 DAT): 85%
per cent (%) mortality of the arthropods, Tick ([4]; 20 mg/kg oral capsule, 23 DAT): 77%
per cent (%) mortality of the arthropods, Tick ([4]; 20 mg/kg oral capsule, 31 DAT): 81%

N#Cc1nn(-c2c(Cl)cc(C(F)(F)F)cc2Cl)c(N)c1[S@+]([O-])C(F)(F)F [Compound B, (S)-5-amino-3-cyano-1-(2,6-dichloro-4-trifluoromethylphenyl)-4-trifluoromethylsulfinylpyrazole]
dogs showing emesis (dogs [2]): 50%
emetic activity on oral administration (dogs [2]): lower emetic activity
symptoms of emesis (dogs [2]; oral, dogs, at any rate (1, 3, 10 mg/kg)): substantially no symptoms of emesis
per cent (%) mortality of the arthropods, Flea ([3]; 1 mg/kg oral, 1 DAT): 100%
per cent (%) mortality of the arthropods, Flea ([3]; 1 mg/kg oral, 9 DAT): 100%
per cent (%) mortality of the arthropods, Flea ([3]; 1 mg/kg oral, 16 DAT): 90%
per cent (%) mortality of the arthropods, Flea ([3]; 1 mg/kg oral, 23 DAT): 79%
per cent (%) mortality of the arthropods, Flea ([3]; 3 mg/kg oral, 1 DAT): 100%
per cent (%) mortality of the arthropods, Flea ([3]; 3 mg/kg oral, 9 DAT): 98%
per cent (%) mortality of the arthropods, Flea ([3]; 3 mg/kg oral, 16 DAT): 67%
per cent (%) mortality of the arthropods, Flea ([3]; 3 mg/kg oral, 23 DAT): 50%
per cent (%) mortality of the arthropods, Flea ([3]; 10 mg/kg oral, 1 DAT): 100%
per cent (%) mortality of the arthropods, Flea ([3]; 10 mg/kg oral, 9 DAT): 99%
per cent (%) mortality of the arthropods, Flea ([3]; 10 mg/kg oral, 16 DAT): 87%
per cent (%) mortality of the arthropods, Flea ([3]; 10 mg/kg oral, 23 DAT): 83%
per cent (%) mortality of the arthropods, Flea ([3]; 20 mg/kg oral capsule, 1 DAT): 100%
per cent (%) mortality of the arthropods, Flea ([3]; 20 mg/kg oral capsule, 9 DAT): 96%
per cent (%) mortality of the arthropods, Flea ([3]; 20 mg/kg oral capsule, 16 DAT): 86%
per cent (%) mortality of the arthropods, Flea ([3]; 20 mg/kg oral capsule, 23 DAT): 88%
per cent (%) mortality of the arthropods, Flea ([3]; 20 mg/kg oral capsule, 31 DAT): 84%
per cent (%) mortality of the arthropods, Tick ([4]; 1 mg/kg oral, 1 DAT): 100%
per cent (%) mortality of the arthropods, Tick ([4]; 1 mg/kg oral, 9 DAT): 100%
per cent (%) mortality of the arthropods, Tick ([4]; 1 mg/kg oral, 16 DAT): 87%
per cent (%) mortality of the arthropods, Tick ([4]; 1 mg/kg oral, 23 DAT): 85%
per cent (%) mortality of the arthropods, Tick ([4]; 3 mg/kg oral, 1 DAT): 98%
per cent (%) mortality of the arthropods, Tick ([4]; 3 mg/kg oral, 9 DAT): 99%
per cent (%) mortality of the arthropods, Tick ([4]; 3 mg/kg oral, 16 DAT): 75%
per cent (%) mortality of the arthropods, Tick ([4]; 3 mg/kg oral, 23 DAT): 63%
per cent (%) mortality of the arthropods, Tick ([4]; 10 mg/kg oral, 1 DAT): 99%
per cent (%) mortality of the arthropods, Tick ([4]; 10 mg/kg oral, 9 DAT): 100%
per cent (%) mortality of the arthropods, Tick ([4]; 10 mg/kg oral, 16 DAT): 85%
per cent (%) mortality of the arthropods, Tick (effectiveness) ([4]; 10 mg/kg oral, 23 DAT): 85%
ticks remaining ([4]; 10 mg/kg oral): 15%
per cent (%) mortality of the arthropods, Tick ([4]; 20 mg/kg oral capsule, 1 DAT): 99%
per cent (%) mortality of the arthropods, Tick ([4]; 20 mg/kg oral capsule, 9 DAT): 97%
per cent (%) mortality of the arthropods, Tick ([4]; 20 mg/kg oral capsule, 16 DAT): 87%
per cent (%) mortality of the arthropods, Tick ([4]; 20 mg/kg oral capsule, 23 DAT): 86%
per cent (%) mortality of the arthropods, Tick ([4]; 20 mg/kg oral capsule, 31 DAT): 92%
